Inhibition of growth data for 62 molecules are collected here from PMC7216583 (Parasites & Vectors, 2020).

Where a name gives a salt, the structure may show the parent alone.

For the first experiment, the system named is Toxoplasma gondii RH-2F tachyzoites. In words: microbe, parasite or virus in culture. To be noted: 72 h, read-out: Parasite inhibition (%) mean.
As to `C/C=C(\C)C(=O)N[C@@H](c1ccccc1)[C@@H](O)C(=O)O[C@H]1C[C@@]2(O)[C@@H](OC(=O)c3ccccc3)[C@@H]3[C@]4(OC(C)=O)CO[C@@H]4C[C@H](O)[C@@]3(C)C(=O)[C@H](OC(C)=O)C(=C1C)C2(C)C` [Cephalomannine], the inhibition of growth at 5 µM stood at 22.4%. As to `COC(=O)[C@H](c1ccccc1Cl)N1CCc2sccc2C1` [Clopidogrel (Plavix)], the inhibition of growth at 5 µM is -0.4%. The same measure, in the same setting: next, `c1ccc([C@H]2CN3CCSC3=N2)cc1` [Levamisole Hydrochloride (Ergamisol)]: 63.9%.

The same experiment, now with this note: 72 h, read-out: Parasite inhibition (%) mean, preliminary screen of compound library, mean.
Consider `C[C@@H](NCCCc1cccc(C(F)(F)F)c1)c1cccc2ccccc12` [AMG-073 HCl (Cinacalcet hydrochloride)], for which the inhibition of growth at 5 µM worked out at 2.4%. The same measure, in the same setting: as for `N[C@H](C(=O)O)[C@H](O)c1ccc(O)c(O)c1` [Droxidopa (L-DOPS)], the figure is 39.8%. Still for that read-out and setting: as for `CC(C)(CO)c1cc2cc(NC(=O)C3(c4ccc5c(c4)OC(F)(F)O5)CC3)c(F)cc2n1C[C@@H](O)CO` [VX-661], the figure is 0.6%.

As to `C=CC(=O)Nc1ccc2ncnc(Nc3cccc(Br)c3)c2c1` [PD168393], the inhibition of growth at 5 µM is -0.1%. Take `CC(C(=O)[O][Ca][O]C(=O)C(C)c1cccc(Oc2ccccc2)c1)c1cccc(Oc2ccccc2)c1` (centres unmarked) [Fenoprofen calcium]: the inhibition of growth at 5 µM turned out to be 27.4%. The same measure, in the same setting: as for `CC=CC1=C(C(=O)O)N2C(=O)[C@@H](NC(=O)[C@H](N)c3ccc(O)cc3)[C@H]2SC1` (mixture of isomers) [Cefprozil hydrate (Cefzil)], the figure is 12.3%. For `O=C(O)c1ccc(-n2nc(-c3ccccc3O)nc2-c2ccccc2O)cc1` [Deferasirox (Exjade)], the inhibition of growth at 5 µM was -0.6%. For `Cn1c(CNc2ccc(C(=N)N)cc2)nc2cc(C(=O)N(CCC(=O)O)c3ccccn3)ccc21` [BIBR 953 (Dabigatran etexilate, Pradaxa)], the inhibition of growth at 5 µM was 0.3%.

As to `COc1c(OCCCN2CCOCC2)ccc2c1N=C(NC(=O)c1cnc(N)nc1)N1CCN=C21` [BAY80-6946], the inhibition of growth at 5 µM was 40.8%. Same read-out and setting: as for `COc1cc2nc(N3CCCN(C)CC3)nc(NC3CCN(Cc4ccccc4)CC3)c2cc1OC` [BIX01294], the figure is 21.8%. On to `O=C1Cc2cc(CCN3CCN(c4nsc5ccccc45)CC3)c(Cl)cc2N1` [Ziprasidone hydrochloride], for which the inhibition of growth at 5 µM came out at 33.7%. Same read-out and setting: as for `C=C1/C(=C/C=C2\CCC[C@@]3(C)[C@H]2CC[C@H]3[C@H](C)/C=C/[C@@H](C)C(C)C)C[C@H](O)C[C@@H]1O` [Doxercalciferol (Hectorol)], the figure is 0.1%; as for `CC1=C(C(=O)OC(C)C)C(c2cccc([N+](=O)[O-])c2)C(C(=O)OC2CN(C(c3ccccc3)c3ccccc3)C2)=C(N)N1` (centres unmarked) [Azelnidipine], 15.7%; as for `Cc1nc2c([nH]1)-c1ccccc1N(C(=O)c1ccc(NC(=O)c3ccccc3-c3ccccc3)cc1)CC2` [Conivaptan HCl (Vaprisol)], 6.6%.

Consider `Cc1cnc(Nc2ccc(OCCN3CCCC3)cc2)nc1Nc1cccc(S(=O)(=O)NC(C)(C)C)c1` [TG101348 (SAR302503)], for which the inhibition of growth at 5 µM was determined as 8.5%. For the molecule `COc1ccc([C@@H]2Sc3ccccc3N(CCN(C)C)C(=O)[C@@H]2OC(C)=O)cc1` [Diltiazem HCl (Tiazac)], the inhibition of growth at 5 µM is -15.8%.

Regarding `CC(C)(O)[C@H]1CC[C@@](C)([C@@H]2[C@@H](O)C[C@@]3(C)[C@@H]4C[C@H](O[C@@H]5O[C@H](CO)[C@@H](O)[C@H](O)[C@@H]5O)[C@H]5C(C)(C)[C@@H](O[C@@H]6OC[C@@H](O)[C@H](O)[C@H]6O)CC[C@@]56C[C@]46CC[C@]23C)O1` [Astragaloside A], the inhibition of growth at 5 µM worked out at 15.5%. Same read-out and setting: next, `C[C@@]12C[C@@]3(O)O[C@@H](O1)[C@]1(COC(=O)c4ccccc4)[C@H]3C[C@@]12O[C@@H]1O[C@H](CO)[C@@H](O)[C@H](O)[C@H]1O` [Paeoniflorin]: 0.7%; `O=C(O)C(O)Cc1ccc(O)c(O)c1` (centres unmarked) [Sodium Danshensu]: 2.2%; `COc1ccc(NS(=O)(=O)c2sc3ccc(Cl)cc3c2C)cc1N1CCNCC1` [SB 271046]: -0.6%. Same read-out and setting: next, `CC[C@H](Nc1ncnc2[nH]cnc12)c1nc2cccc(F)c2c(=O)n1-c1ccccc1` [CAL-101 (GS-1101)]: 47.8%. In the case of `COC(=O)CCSCc1ccc(-c2onc(C)c2NC(=O)OC(C)c2ccccc2Cl)cc1` (centres unmarked) [Ki16198], the inhibition of growth at 5 µM turned out to be 1.4%. The same measure, in the same setting: next, `C=CCc1cc(OC)c(O)c(C(=O)NCCO)c1` [Alibendol]: 0.1%. The same measure, in the same setting: next, `CN1CCN(C(=O)c2cc3cc(Cl)ccc3[nH]2)CC1` [JNJ-7777120]: 67.4%; `CCCNC(C)C(=O)Nc1ccccc1C` (centres unmarked) [Prilocaine]: -21.8%; `CC1(C)CC(=O)c2c(C(F)(F)F)nn(-c3ccc(C(N)=O)c(N[C@H]4CC[C@H](O)CC4)c3)c2C1` [SNX-2112]: 9.9%. With `N[C@@H](CC(=O)N1CCn2c(nnc2C(F)(F)F)C1)Cc1cc(F)c(F)cc1F` [Sitagliptin phosphate monohydrate], the inhibition of growth at 5 µM was 1.1%.

Still in this experiment, the particulars now being: 72 h, read-out: Parasite inhibition (%) mean, preliminary screen, mean.
Take `NCC1(CC(=O)O)CCCCC1` [Gabapentin HCl]: the inhibition of growth at 5 µM turned out to be 1.7%. Still for that read-out and setting: as for `CCCC(CCC)C(=O)O` [Divalproex sodium], the figure is 1.4%; as for `Nc1ncnc2c1c(-c1cccc(OCc3ccccc3)c1)cn2C1CC(CN2CCCC2)C1` (stereo in doubt) [NVP-ADW742], 48.9%; as for `CCOc1cc2ncc(C#N)c(Nc3ccc(OCc4ccccn4)c(Cl)c3)c2cc1NC(=O)/C=C/CN(C)C` [Neratinib (HKI-272)], -11.6%.

In the case of `C=CCn1c(=O)c2cnc(Nc3ccc(N4CCN(C)CC4)cc3)nc2n1-c1cccc(C(C)(C)O)n1` [MK-1775], the inhibition of growth at 5 µM is 0%. Consider `C[C@]12CCC3=C4CCC(=O)C=C4CC[C@H]3[C@@H]1CC[C@@]2(O)CC#N` [Dienogest], for which the inhibition of growth at 5 µM came to 12%.

On to `CN(C)[C@@H](CCOc1cccc2ccccc12)c1ccccc1` [Dapoxetine HCl (Priligy)], for which the inhibition of growth at 5 µM turned out to be 0.8%.

With `CCNC(=O)[C@H]1O[C@@H](n2cnc3c(N)nc(NCCc4ccc(CCC(=O)O)cc4)nc32)[C@@H](O)[C@@H]1O` [CGS 21680 HCl], the inhibition of growth at 5 µM turned out to be 0.9%. On the same count and under the same terms, as for `O=C(/C=C/c1cccc(S(=O)(=O)Nc2ccccc2)c1)NO` [Belinostat (PXD101)], the figure is 65.8%. Still for that read-out and setting: as for `CC[C@@H]1C(=O)N(C)c2cnc(Nc3ccc(C(=O)NC4CCN(C)CC4)cc3OC)nc2N1C1CCCC1` [BI 2536], the figure is 0.7%; as for `CC(=O)Nc1ccc(OC[C@](C)(O)C(=O)Nc2ccc([N+](=O)[O-])c(C(F)(F)F)c2)cc1` [Andarine (GTX-007)], -18.7%. Still for that read-out and setting: as for `CNS(=O)(=O)CCc1ccc2[nH]cc(C3CCN(C)CC3)c2c1` [Naratriptan HCl], the figure is 0.6%.

As for `O=C(NC[C@H](O)CO)c1ccncc1Nc1ccc(I)cc1F` [AS703026 (pimasertib)], the inhibition of growth at 5 µM is -20.8%. As for `CN(C)C/C=C/C(=O)Nc1cc2c(Nc3ccc(F)c(Cl)c3)ncnc2cc1O[C@H]1CCOC1` [Afatinib (BIBW2992)], the inhibition of growth at 5 µM was found to be 42.8%. As to `COc1ccc(-n2nc(C(N)=O)c3c2C(=O)N(c2ccc(N4CCCCC4=O)cc2)CC3)cc1` [Apixaban], the inhibition of growth at 5 µM is 2%.

With `Cc1cccc(Cc2c[nH]cn2)c1C` [Detomidine HCl], the inhibition of growth at 5 µM came out at 60.4%.

Take `CC(C)c1noc(N2CCC(COc3ccc(-c4ccc(S(C)(=O)=O)cc4)nc3)CC2)n1` [GSK1292263]: the inhibition of growth at 5 µM is 0.7%.

As for `Clc1ccccc1C(c1ccccc1)(c1ccccc1)n1cccn1` [TRAM-34], the inhibition of growth at 5 µM worked out at 2.6%. On the same count and under the same terms, as for `O=C(NOCC(O)CO)c1cc(Br)c(F)c(F)c1Nc1ccc(I)cc1F` (centres unmarked) [PD318088], the figure is -12.9%; as for `CC(C)c1cc(C(C)C)c(CC(=O)NS(=O)(=O)Oc2c(C(C)C)cccc2C(C)C)c(C(C)C)c1` [Avasimibe (CI-1011)], 5.1%. Same read-out and setting: next, `COc1cc(Nc2ncc3c(n2)-c2ccc(Cl)cc2C(c2c(F)cccc2OC)=NC3)ccc1C(=O)O` [MLN8237 (Alisertib)]: 58.9%; `CN(C)CCN1C(=O)c2cccc3cc(N)cc(c23)C1=O` [Amonafide]: -3.3%; `CN(C)C(=O)Oc1ccc[n+](C)c1` [Pyridostigmine Bromide (Mestinon)]: -6.5%. In the case of `CN(NC(=O)CC(=O)NN(C)C(=S)c1ccccc1)C(=S)c1ccccc1` [Elesclomol], the inhibition of growth at 5 µM turned out to be 0.9%. Regarding `C[C@H](N[C@@H](CCc1ccccc1)C(=O)O)C(=O)N1CCC[C@H]1C(=O)O` [Enalaprilat dihydrate], the inhibition of growth at 5 µM was 33.9%. On the same count and under the same terms, next, `CNC(=O)c1cc(Oc2ccc(NC(=O)Nc3ccc(Cl)c(C(F)(F)F)c3)cc2)ccn1` [Sorafenib (Nexavar)]: 55.5%; `CCOC(=O)[C@H](CCc1ccccc1)N[C@H]1CS[C@H](c2cccs2)CN(CC(=O)O)C1=O` [Temocapril HCl]: 31.7%. Take `CC1COC2(CCN(c3nc(=O)c4cc(C(F)(F)F)cc([N+](=O)[O-])c4s3)CC2)O1` (racemic) [BTZ043 racemate]: the inhibition of growth at 5 µM is -5.8%. The same measure, in the same setting: as for `CNC(=O)c1ccc(N2C(=S)N(c3ccc(C#N)c(C(F)(F)F)c3)C(=O)C2(C)C)cc1F` [MDV3100 (Enzalutamide)], the figure is 35.7%; as for `O=S(=O)(O)CCSSCCS(=O)(=O)O` [Dimesna], -0.8%; as for `CC(C)(C)C(=O)OCOP(=O)(COCCn1cnc2c(N)ncnc21)OCOC(=O)C(C)(C)C` [Adefovir Dipivoxil (Preveon, Hepsera)], 0%. On the same count and under the same terms, next, `NC(=O)c1ccc(I)c([N+](=O)[O-])c1` [Iniparib (BSI-201)]: 2.4%.
